Results from PMC5775429, “LY2087101 and dFBr share transmembrane binding sites in the (α4)3(β2)2 Nicotinic Acetylcholine Receptor” (Scientific Reports, 2018).
“And” between values parts separate entries of the source, which are not always exact repeats. Identical values can stand only once.

Key:
Experiment in all cases: Two-electrode voltage-clamp of ACh-induced currents in Xenopus oocytes
Format in all cases: cell-based
(α4T261D)3(β2)2 nAChR = biological target: T1, (α4T261D)3(β2)2 nAChR (Homo sapiens, UniProt P17787+P43681, T261D); conditions: 10 µM ACh + 1 µM PAM vs 10 µM ACh alone
T1 construct: expressed in transfected cells; host or cells: Xenopus laevis oocytes injected with cRNA
T1 sequence (P43681 29-627 T261D limits assumed): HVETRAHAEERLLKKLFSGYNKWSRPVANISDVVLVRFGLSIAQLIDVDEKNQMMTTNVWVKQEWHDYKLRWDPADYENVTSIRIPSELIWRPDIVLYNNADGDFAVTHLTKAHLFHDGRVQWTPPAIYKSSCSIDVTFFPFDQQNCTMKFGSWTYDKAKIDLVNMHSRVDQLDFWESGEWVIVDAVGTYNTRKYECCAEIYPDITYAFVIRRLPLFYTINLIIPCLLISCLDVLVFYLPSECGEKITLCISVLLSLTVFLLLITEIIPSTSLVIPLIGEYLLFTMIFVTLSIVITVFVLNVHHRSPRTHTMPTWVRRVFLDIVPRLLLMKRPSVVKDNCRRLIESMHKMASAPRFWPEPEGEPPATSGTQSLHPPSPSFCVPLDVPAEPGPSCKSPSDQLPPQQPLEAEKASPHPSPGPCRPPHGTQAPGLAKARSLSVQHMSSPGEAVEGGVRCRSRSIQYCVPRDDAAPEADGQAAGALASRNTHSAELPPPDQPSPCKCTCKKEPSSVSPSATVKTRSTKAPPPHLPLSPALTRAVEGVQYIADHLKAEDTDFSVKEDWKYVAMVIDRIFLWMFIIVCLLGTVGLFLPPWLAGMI
T1 sequence (P17787 26-502): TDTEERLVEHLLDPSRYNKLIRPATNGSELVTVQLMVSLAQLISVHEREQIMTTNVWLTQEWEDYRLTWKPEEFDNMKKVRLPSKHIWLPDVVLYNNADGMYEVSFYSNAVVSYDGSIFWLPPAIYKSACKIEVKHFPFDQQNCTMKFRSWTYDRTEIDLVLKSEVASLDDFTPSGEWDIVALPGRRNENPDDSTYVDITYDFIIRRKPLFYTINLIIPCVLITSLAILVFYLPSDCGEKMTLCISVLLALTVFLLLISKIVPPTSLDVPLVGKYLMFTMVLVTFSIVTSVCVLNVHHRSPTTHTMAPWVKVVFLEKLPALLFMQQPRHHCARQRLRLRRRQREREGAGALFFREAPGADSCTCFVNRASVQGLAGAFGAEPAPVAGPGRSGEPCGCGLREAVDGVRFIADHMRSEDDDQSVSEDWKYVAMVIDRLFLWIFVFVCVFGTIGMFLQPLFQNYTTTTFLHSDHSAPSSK
Procedure: (§1) For amino acid substitutions within the α4 nAChR subunit, point mutations were introduced into pSP64ployA plasmid with cDNA encoding for human α4 nAChR subunit with mutagenic primer pairs using the Quick Change II Site-Directed Mutagenesis Kit (Agilent Technologies) then confirmed by DNA sequencing (GENEWIZ, LLC, South Plainfield, NJ). cRNA transcripts suitable for oocyte expression were prepared in vitro from linearized plasmids [α3 (BamH1), α4 (AseI), β2 (PvuII), β4 (XhoI)] using mMESSAGE mMACHINE high yield capped RNA transcription kits (Ambion) and purified on NucAway Spin column (Invitrogen). cRNA concentration was determined by spectroscopy (Concentration (ug/ul) = Abs260 * 40), aliquoted and stored at −80 °C until used.
(§2) Ovarian lobules were surgically harvested from oocytes-positive female Xenopus laevis (NASCO, Fort Atkinson, WI) according to an animal use protocol approved by the Texas A&M Health Sciences Center Institutional Animals Care and Use Committee. The Texas A&M Health Sciences Center Research Facility is registered as an animal research facility with the United States Department of Agriculture and is fully accredited by the American Association for Accreditation of Laboratory Animal Care (AAALAC). For oocytes defolliculation, ovarian lobes were treated with 3 mg/ml collagenase type 2 (Worthington Biomedical, Lakewood, NJ) in Ca + 2-free buffer (85 mM NaCl, 2.5 mM KCl, 1 mM MgCl2, 5 mM HEPES, pH 7.6). Collagenase treatment was allowed to proceed for 3 hours at room temperature with gentle shaking then oocytes were washed several times with buffer to remove collagenase then with ND96-gentamicine buffer. Healthy Stage V and VI oocytes were visually selected and maintained at 18 °C in modified ND96-gentamicine buffer (96 mM NaCl, 2 mM KCl, 1.8 mM CaCl2, 1 mM MgCl2, 5 mM HEPES, 50 µg/ml gentamicin, pH 7.6). Oocytes were injected with 50–100 ng of the desired nAChR subunits cRNA mix at ratios of 8α:1β or 1α:8β to express nAChRs with subunit stoichiometries of 3α:2β (low agonist sensitivity) or 2α:3β (high agonist sensitivity), respectively.
(§3) Oocytes were continuously perfused with recording buffer (100 mM NaCl, 2 mM KCl, 1 mM CaCl2, 0.8 mM MgCl2, 1 mM EGTA, 10 mM Hepes, pH 7.5) except during periods of drug applications.

(α4C259V)3(β2)2 nAChR = (α4C259V)3(β2)2 nAChR (Homo sapiens, UniProt P43681, C259V); conditions: 10 µM ACh + 1 µM PAM vs 10 µM ACh alone
Chain of (α4C259V)3(β2)2 nAChR (P43681 29-627 C259V limits assumed): as the sequence (P43681 29-627 T261D limits assumed) above, with C231V, D233T counted along it
Chain of (α4C259V)3(β2)2 nAChR (P17787 26-502 partner): as the sequence (P17787 26-502) above
Procedure: as §1, §2, §3

(α4G613L)3(β2)2 nAChR = (α4G613L)3(β2)2 nAChR (Homo sapiens, UniProt P43681, G613L)
Chain of (α4G613L)3(β2)2 nAChR (P43681 29-627 G613L limits assumed): as the sequence (P43681 29-627 T261D limits assumed) above, with D233T, G585L counted along it
Chain of (α4G613L)3(β2)2 nAChR (P17787 26-502 partner): as the sequence (P17787 26-502) above
Procedure: as §1, §2, §3

(α4M605I)3(β2)2 nAChR = biological target: T2, (α4M605I)3(β2)2 nAChR (Homo sapiens, UniProt P17787+P43681, M605I); conditions: 10 µM ACh + 1 µM PAM vs 10 µM ACh alone
T2 construct: expressed in transfected cells; host or cells: Xenopus laevis oocytes injected with cRNA
T2 sequence (P43681 29-627 M605I limits assumed): as the sequence (P43681 29-627 T261D limits assumed) above, with D233T, M577I counted along it
T2 sequence (P17787 26-502): as the sequence (P17787 26-502) above
Procedure: as §1, §2, §3

(α4F606Y)3(β2)2 nAChR = biological target: T3, (α4F606Y)3(β2)2 nAChR (Homo sapiens, UniProt P17787+P43681, F606Y)
T3 construct: expressed in transfected cells; host or cells: Xenopus laevis oocytes injected with cRNA
T3 sequence (P43681 29-627 F606Y limits assumed): as the sequence (P43681 29-627 T261D limits assumed) above, with D233T, F578Y counted along it
T3 sequence (P17787 26-502): as the sequence (P17787 26-502) above
Procedure: as §1, §2, §3

(α4L311V)3(β2)2 nAChR = (α4L311V)3(β2)2 nAChR (Homo sapiens, UniProt P43681, L311V); conditions: 10 µM ACh + 1 µM PAM vs 10 µM ACh alone
Chain of (α4L311V)3(β2)2 nAChR (P43681 29-627 L311V limits assumed): as the sequence (P43681 29-627 T261D limits assumed) above, with D233T, L283V counted along it
Chain of (α4L311V)3(β2)2 nAChR (P17787 26-502 partner): as the sequence (P17787 26-502) above
Procedure: as §1, §2, §3

(α4F316L)3(β2)2 nAChR = (α4F316L)3(β2)2 nAChR (Homo sapiens, UniProt P43681, F316L)
Chain of (α4F316L)3(β2)2 nAChR (P43681 29-627 F316L limits assumed): as the sequence (P43681 29-627 T261D limits assumed) above, with D233T, F288L counted along it
Chain of (α4F316L)3(β2)2 nAChR (P17787 26-502 partner): as the sequence (P17787 26-502) above
Procedure: as §1, §2, §3

(α4M605V)3(β2)2 nAChR = biological target: T4, (α4M605V)3(β2)2 nAChR (Homo sapiens, UniProt P17787+P43681, M605V); conditions: 10 µM ACh + 1 µM PAM vs 10 µM ACh alone
T4 construct: expressed in transfected cells; host or cells: Xenopus laevis oocytes injected with cRNA
T4 sequence (P43681 29-627 M605V limits assumed): as the sequence (P43681 29-627 T261D limits assumed) above, with D233T, M577V counted along it
T4 sequence (P17787 26-502): as the sequence (P17787 26-502) above
Procedure: as §1, §2, §3

(α4E308V)3(β2)2 nAChR = (α4E308V)3(β2)2 nAChR (Homo sapiens, UniProt P43681, E308V)
Chain of (α4E308V)3(β2)2 nAChR (P43681 29-627 E308V limits assumed): as the sequence (P43681 29-627 T261D limits assumed) above, with D233T, E280V counted along it
Chain of (α4E308V)3(β2)2 nAChR (P17787 26-502 partner): as the sequence (P17787 26-502) above
Procedure: as §1, §2, §3

(α4L291V)3(β2)2 nAChR = biological target: T5, (α4L291V)3(β2)2 nAChR (Homo sapiens, UniProt P17787+P43681, L291V)
T5 construct: expressed in transfected cells; host or cells: Xenopus laevis oocytes injected with cRNA
T5 sequence (P43681 29-627 L291V limits assumed): as the sequence (P43681 29-627 T261D limits assumed) above, with D233T, L263V counted along it
T5 sequence (P17787 26-502): as the sequence (P17787 26-502) above
Procedure: as §1, §2, §3

(α4V609A)3(β2)2 nAChR = biological target: T6, (α4V609A)3(β2)2 nAChR (Homo sapiens, UniProt P17787+P43681, V609A); conditions: 10 µM ACh + 1 µM PAM vs 10 µM ACh alone
T6 construct: expressed in transfected cells; host or cells: Xenopus laevis oocytes injected with cRNA
T6 sequence (P43681 29-627 V609A limits assumed): as the sequence (P43681 29-627 T261D limits assumed) above, with D233T, V581A counted along it
T6 sequence (P17787 26-502): as the sequence (P17787 26-502) above
Procedure: as §1, §2, §3

(α4L256F)3(β2)2 nAChR = (α4L256F)3(β2)2 nAChR (Homo sapiens, UniProt P43681, L256F)
Chain of (α4L256F)3(β2)2 nAChR (P43681 29-627 L256F limits assumed): as the sequence (P43681 29-627 T261D limits assumed) above, with L228F, D233T counted along it
Chain of (α4L256F)3(β2)2 nAChR (P17787 26-502 partner): as the sequence (P17787 26-502) above
Procedure: as §1, §2, §3

(α4I315A)3(β2)2 nAChR = biological target: T7, (α4I315A)3(β2)2 nAChR (Homo sapiens, UniProt P17787+P43681, I315A); conditions: 10 µM ACh + 1 µM PAM vs 10 µM ACh alone
T7 construct: expressed in transfected cells; host or cells: Xenopus laevis oocytes injected with cRNA
T7 sequence (P43681 29-627 I315A limits assumed): as the sequence (P43681 29-627 T261D limits assumed) above, with D233T, I287A counted along it
T7 sequence (P17787 26-502): as the sequence (P17787 26-502) above
Procedure: as §1, §2, §3

(α4I608L)3(β2)2 nAChR = biological target: T8, (α4I608L)3(β2)2 nAChR (Homo sapiens, UniProt P17787+P43681, I608L); conditions: 10 µM ACh + 1 µM PAM vs 10 µM ACh alone
T8 construct: expressed in transfected cells; host or cells: Xenopus laevis oocytes injected with cRNA
T8 sequence (P43681 29-627 I608L limits assumed): as the sequence (P43681 29-627 T261D limits assumed) above, with D233T, I580L counted along it
T8 sequence (P17787 26-502): as the sequence (P17787 26-502) above
Procedure: as §1, §2, §3

(α4C259F)3(β2)2 nAChR = (α4C259F)3(β2)2 nAChR (Homo sapiens, UniProt P43681, C259F); conditions: 10 µM ACh + 1 µM PAM vs 10 µM ACh alone
Chain of (α4C259F)3(β2)2 nAChR (P43681 29-627 C259F limits assumed): as the sequence (P43681 29-627 T261D limits assumed) above, with C231F, D233T counted along it
Chain of (α4C259F)3(β2)2 nAChR (P17787 26-502 partner): as the sequence (P17787 26-502) above
Procedure: as §1, §2, §3

α4β4 nAChR = biological target: T9, α4β4 nAChR (Homo sapiens, UniProt P30926+P43681); conditions: 1 μM PAM
T9 construct: expressed in transfected cells; host or cells: Xenopus laevis oocytes injected with cRNA
T9 sequence (P43681 29-627 limits assumed): as the sequence (P43681 29-627 T261D limits assumed) above, with D233T counted along it
T9 sequence (P30926 22-498): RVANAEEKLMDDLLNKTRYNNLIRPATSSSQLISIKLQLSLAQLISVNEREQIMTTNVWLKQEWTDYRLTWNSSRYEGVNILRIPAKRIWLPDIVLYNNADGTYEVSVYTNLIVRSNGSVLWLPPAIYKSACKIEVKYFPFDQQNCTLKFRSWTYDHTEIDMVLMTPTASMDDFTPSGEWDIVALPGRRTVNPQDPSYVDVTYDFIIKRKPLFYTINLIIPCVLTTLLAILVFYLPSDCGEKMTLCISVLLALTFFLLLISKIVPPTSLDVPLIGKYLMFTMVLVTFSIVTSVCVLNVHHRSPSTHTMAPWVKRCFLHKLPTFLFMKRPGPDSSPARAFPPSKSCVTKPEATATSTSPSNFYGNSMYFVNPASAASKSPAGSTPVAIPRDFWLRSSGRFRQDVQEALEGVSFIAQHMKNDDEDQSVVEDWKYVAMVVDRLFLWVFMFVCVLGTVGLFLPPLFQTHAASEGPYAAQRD
Procedure: (§4) Next, Xenopus oocytes were injected with RNA mixes of […], α3:β4, […], or α4:β4 at ratios of 8:1, 1:1, or 1:8 to express nAChRs with different subunit composition and with various α:β ratios.
as §2, §3

α4β2 nAChR = biological target: T10, α4β2 nAChR (Homo sapiens, UniProt P17787+P43681); conditions: 1 μM PAM
T10 construct: expressed in transfected cells; host or cells: Xenopus laevis oocytes injected with cRNA
T10 sequence (P43681 29-627 limits assumed): as the sequence (P43681 29-627 T261D limits assumed) above, with D233T counted along it
T10 sequence (P17787 26-502): as the sequence (P17787 26-502) above
Procedure: as §4, §2, §3

[1] = 10 µM ACh + 1 µM PAM vs 10 µM ACh alone
[2] = ACh concentration-response curve, normalized to 1 mM ACh alone
[3] = read-out: inhibition of ACh-current response at 10 μM dFBr

C=CC(C)(C)c1[nH]c2cc(Br)ccc2c1CCNC [dFBr]
R, potentiation ratio (PR) ((α4T261D)3(β2)2 nAChR): ~ 2.1 and 2.1 ± 0.1
R, potentiation ratio (PR) ((α4C259V)3(β2)2 nAChR): 4.6 ± 0.9
R, potentiation ratio (PR) ((α4G613L)3(β2)2 nAChR; [1]): 0.8 and 0.8 ± 0.1
ACh Imax in the presence of 1 µM dFBr ((α4G613L)3(β2)2 nAChR; [2]): 157 ± 19%
dFBr concentration-dependent potentiation of ACh-current responses ((α4G613L)3(β2)2 nAChR; dFBr up to 10 µM, 10 μM ACh): did not potentiate
inhibition at 10 µM ((α4G613L)3(β2)2 nAChR; [3]): ~65%
R, potentiation ratio (PR) ((α4M605I)3(β2)2 nAChR): 4.5 ± 0.3
R, potentiation ratio (PR) ((α4F606Y)3(β2)2 nAChR; [1]): 3.1 ± 0.4
ACh Imax in the presence of 1 µM dFBr ((α4F606Y)3(β2)2 nAChR; [2]): 159 ± 07%
R, potentiation ratio (PR) ((α4L311V)3(β2)2 nAChR): 5.8 ± 1.4
R, potentiation ratio (PR) ((α4F316L)3(β2)2 nAChR; [1]): 1.2 and ~ 1.2 and 1.2 ± 0.1
ACh Imax in the presence of 1 µM dFBr ((α4F316L)3(β2)2 nAChR; [2]): 148 ± 12%
dFBr concentration-dependent potentiation of ACh-current responses ((α4F316L)3(β2)2 nAChR; dFBr up to 10 µM, 10 μM ACh): did not potentiate
R, potentiation ratio (PR) ((α4M605V)3(β2)2 nAChR): 5.3 ± 1.2
R, potentiation ratio (PR) ((α4E308V)3(β2)2 nAChR; [1]): 1.0 and 1.0 ± 0.1
ACh Imax in the presence of 1 µM dFBr ((α4E308V)3(β2)2 nAChR; [2]): 110 ± 06%
dFBr concentration-dependent potentiation of ACh-current responses ((α4E308V)3(β2)2 nAChR; dFBr up to 10 µM, 10 μM ACh): did not potentiate
inhibition at 10 µM ((α4E308V)3(β2)2 nAChR; [3]): ~45%
R, potentiation ratio (PR) ((α4L291V)3(β2)2 nAChR; [1]): 3.5 ± 0.2
dFBr potentiation h (Hill coefficient) ((α4L291V)3(β2)2 nAChR; co-applied with 10 μM ACh): 0.8 ± 0.2
dFBr potentiation Imax ((α4L291V)3(β2)2 nAChR; normalized to 10 µM ACh alone): 600 ± 136%
EC50 ((α4L291V)3(β2)2 nAChR; read-out: dFBr potentiation EC50): 2900 ± 1900 nM
R, potentiation ratio (PR) ((α4V609A)3(β2)2 nAChR): 3.2 ± 0.2
R, potentiation ratio (PR) ((α4L256F)3(β2)2 nAChR; [1]): 1.0 and ~ 1 and 1.0 ± 0.1
ACh Imax in the presence of 1 µM dFBr ((α4L256F)3(β2)2 nAChR; [2]): 142 ± 08%
dFBr concentration-dependent potentiation of ACh-current responses ((α4L256F)3(β2)2 nAChR; dFBr up to 10 µM, 10 μM ACh): did not potentiate
inhibition at 10 µM ((α4L256F)3(β2)2 nAChR; [3]): ~25%
R, potentiation ratio (PR) ((α4I315A)3(β2)2 nAChR): 1.2 and ~ 1.2 and 1.2 ± 0.2
R, potentiation ratio (PR) ((α4I608L)3(β2)2 nAChR): 5.4 ± 0.4
R, potentiation ratio (PR) ((α4C259F)3(β2)2 nAChR): 3.1 ± 0.3
potentiation of ACh responses (α4β4 nAChR): did not potentiate
potentiation of ACh responses (α4β2 nAChR): potentiated
